The results in this text go back to PubChem BioAssay (NCI).

Some test systems named below: OVCAR-5 ovarian; A549 NSCLC; RXF 393 renal; M14 melanoma; NCI-H226 lung; SF-539 CNS; HOP-62 NSCLC; EKVX NSCLC; HCC-2998 colon; A498 renal; CCRF-CEM leukemia; SK-MEL-28 melanoma; SK-MEL-5 melanoma; MCF7 breast; DU-145 prostate.
Common to all, as to test: DTP human tumour cell line panel, 48 h

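Growth conditions: 96-well plates. Treatment: test compound, 48 hours, 5 concentrations. Analysis: linear interpolation between bracketing concentrations; unreached endpoints set to highest concentration. TGI denotes the concentration required for complete inhibition of growth.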

One may read the TGI as the concentration giving total growth inhibition. Read a low TGI as more potent growth arrest. As to `COc1cc(C2c3cc4c(cc3OC3(O)COC(=O)C23)OCO4)cc(OC)c1OC` (stereo not drawn), the TGI was more than 100 µM with OVCAR-5 ovarian; more than 100 µM with A549 NSCLC; 91.5 µM in the experiment with RXF 393 renal; more than 100 µM in the experiment on M14 melanoma; more than 100 µM with NCI-H226 lung; 79.3 µM with SF-539 CNS. The concentration for total growth inhibition (TGI) with HOP-62 NSCLC, in the experiment with EKVX NSCLC, with HCC-2998 colon, with A498 renal and with CCRF-CEM leukemia was more than 100 µM throughout.
In the case of `CCCCC(NC(=O)CC)C(=O)O` (stereo not drawn), the concentration for total growth inhibition (TGI) in the experiment on SK-MEL-28 melanoma, in the experiment with OVCAR-5 ovarian, in the experiment with SK-MEL-5 melanoma, in the experiment on A549 NSCLC, in the experiment with NCI-H226 lung and with SF-539 CNS was more than 100 µM throughout. Further, the TGI was more than 100 µM in the experiment with HOP-62 NSCLC; more than 100 µM in the experiment on EKVX NSCLC; more than 31.6 µM in the experiment on HCC-2998 colon; more than 100 µM in the experiment on A498 renal; more than 100 µM in the experiment with MCF7 breast; more than 100 µM with CCRF-CEM leukemia.
As to `CC1=C2C(=O)C3[C@@H](CCC4=CC(=O)CC[C@@]43C)C2CC[C@]12O[C@@H]1C[C@H](C)CN[C@H]1[C@H]2C` (stereo partly drawn), the TGI with SK-MEL-28 melanoma, in the experiment with SK-MEL-5 melanoma, in the experiment on A549 NSCLC, in the experiment on RXF 393 renal, with M14 melanoma and with NCI-H226 lung was more than 100 µM each time. Also, the total growth inhibition concentration (TGI) was more than 100 µM in the experiment on SF-539 CNS; 68.2 µM with HOP-62 NSCLC; more than 100 µM with EKVX NSCLC; more than 100 µM in the experiment on HCC-2998 colon; more than 100 µM with A498 renal; 40.1 µM with CCRF-CEM leukemia.
Turning to `Cc1ccc(S(=O)(=O)c2c(N)c3nccn3c3nc4ccccc4nc23)cc1`, the TGI with SK-MEL-28 melanoma, in the experiment with OVCAR-5 ovarian, in the experiment on SK-MEL-5 melanoma, in the experiment with A549 NSCLC, in the experiment with M14 melanoma and in the experiment on SF-539 CNS was more than 100 µM each time. Further, the concentration for total growth inhibition (TGI) with HOP-62 NSCLC, in the experiment on EKVX NSCLC, with HCC-2998 colon and in the experiment on CCRF-CEM leukemia was more than 100 µM each time.
Take `CC1(C)N(OC2CCCCO2)C(c2ccccc2)C(c2ccccc2)=[N+]1[O-]` (stereo not drawn): the TGI with SK-MEL-28 melanoma, with OVCAR-5 ovarian, in the experiment with SK-MEL-5 melanoma, in the experiment with A549 NSCLC, in the experiment with RXF 393 renal and in the experiment with M14 melanoma was more than 100 µM throughout. Besides, the total growth inhibition concentration (TGI) in the experiment with NCI-H226 lung, with SF-539 CNS, with HOP-62 NSCLC, in the experiment with EKVX NSCLC, in the experiment on HCC-2998 colon and with A498 renal was more than 100 µM in each case. Besides, the total growth inhibition concentration (TGI) with MCF7 breast and with CCRF-CEM leukemia was more than 100 µM throughout.
For `Cc1c2ccccc2c(CO)c2cc(F)c3ccccc3c12`, the TGI in the experiment on SK-MEL-28 melanoma was more than 100 µM; in the experiment on OVCAR-5 ovarian it was 80.6 µM; with SK-MEL-5 melanoma it was more than 100 µM; in the experiment with A549 NSCLC it was more than 100 µM; with RXF 393 renal, 61.5 µM; in the experiment with NCI-H226 lung, more than 100 µM. Besides, the TGI is more than 100 µM in the experiment on SF-539 CNS; 92.9 µM in the experiment with HOP-62 NSCLC; more than 100 µM in the experiment on EKVX NSCLC; more than 100 µM with HCC-2998 colon; more than 100 µM with A498 renal; 68 µM in the experiment on CCRF-CEM leukemia.
On to `Nc1ncnc2c1ncn2[C@@H]1C[C@H]1CO`, for which the concentration for total growth inhibition (TGI) in the experiment with OVCAR-5 ovarian, in the experiment with A549 NSCLC, in the experiment on M14 melanoma, in the experiment on NCI-H226 lung, with SF-539 CNS and with HOP-62 NSCLC was more than 100 µM throughout. Also, the total growth inhibition concentration (TGI) in the experiment on EKVX NSCLC, in the experiment with HCC-2998 colon, in the experiment on A498 renal, in the experiment with MCF7 breast and with CCRF-CEM leukemia was more than 100 µM in each case.
As for `CCOc1ccc(C2=C(Cl)c3cc(OC)c(OC)cc3C2Cl)cc1` (stereo not drawn), the total growth inhibition concentration (TGI) in the experiment on SK-MEL-28 melanoma is more than 100 µM; in the experiment with SK-MEL-5 melanoma, 39.3 µM; with M14 melanoma, more than 100 µM; in the experiment with NCI-H226 lung, more than 100 µM; in the experiment with SF-539 CNS it was more than 100 µM; with EKVX NSCLC, more than 100 µM. Besides, the figures for the TGI in the experiment on A498 renal and with CCRF-CEM leukemia were 90.4 µM and more than 100 µM, respectively.
As to `C=C1C(=O)OC2C[C@H](C)C3CC(=O)C(C)=C3CC12` (stereo partly drawn), the total growth inhibition concentration (TGI) in the experiment with SK-MEL-28 melanoma is 18.7 µM; in the experiment with OVCAR-5 ovarian, 28.9 µM; in the experiment with SK-MEL-5 melanoma, 33.3 µM; in the experiment on A549 NSCLC it was 69.1 µM; in the experiment on RXF 393 renal it was 31.6 µM; in the experiment on M14 melanoma it was 27.4 µM. Also, the TGI with NCI-H226 lung is 30.6 µM; in the experiment on SF-539 CNS, 35 µM; in the experiment on HOP-62 NSCLC, more than 54.4 µM; in the experiment on EKVX NSCLC, 32.8 µM; in the experiment with HCC-2998 colon it was 29.2 µM; in the experiment on A498 renal, 43.7 µM. In addition, the TGI with CCRF-CEM leukemia is 15.7 µM.
On to `Cc1cccc2nc3n(c12)C(=O)c1ccccc1-3`, for which the TGI in the experiment with SK-MEL-28 melanoma, with OVCAR-5 ovarian, in the experiment on A549 NSCLC, in the experiment on RXF 393 renal, with NCI-H226 lung and in the experiment with SF-539 CNS was more than 100 µM each time. For the same compound, the TGI in the experiment with HOP-62 NSCLC, in the experiment on EKVX NSCLC, in the experiment with HCC-2998 colon, in the experiment on MCF7 breast, in the experiment on DU-145 prostate and in the experiment on CCRF-CEM leukemia was more than 100 µM each time.
For `CC1C(=O)C(C)C(c2cccs2)N(N=O)C1c1cccs1` (stereo not drawn), the TGI in the experiment on SK-MEL-28 melanoma, with OVCAR-5 ovarian, in the experiment with SK-MEL-5 melanoma, with A549 NSCLC, with RXF 393 renal and in the experiment on NCI-H226 lung was more than 100 µM throughout. The TGI in the experiment with SF-539 CNS, with HOP-62 NSCLC, with EKVX NSCLC, in the experiment on HCC-2998 colon, in the experiment on A498 renal and in the experiment with MCF7 breast was more than 100 µM each time. This compound also registered a TGI in the experiment with CCRF-CEM leukemia of more than 100 µM.
With `O=C1ON(Cc2ccccc2)C(c2ccccc2)N1c1ccccc1` (stereo not drawn), the TGI with SK-MEL-28 melanoma, in the experiment with OVCAR-5 ovarian, in the experiment on SK-MEL-5 melanoma, in the experiment with A549 NSCLC, in the experiment with RXF 393 renal and with NCI-H226 lung was more than 100 µM each time. Further, the TGI with SF-539 CNS, with HOP-62 NSCLC, in the experiment with EKVX NSCLC, in the experiment with HCC-2998 colon, in the experiment with A498 renal and with MCF7 breast was more than 100 µM in each case. In the experiment with CCRF-CEM leukemia, this compound yielded a TGI of more than 100 µM.
Regarding `CC(C)=CCC/C(C)=C/CC/C(C)=C/CC/C=C(\C)CC/C=C(\C)CCC1SC1(C)C` (stereo not drawn), the TGI in the experiment on SK-MEL-28 melanoma, in the experiment with OVCAR-5 ovarian, with SK-MEL-5 melanoma, in the experiment on A549 NSCLC, in the experiment on RXF 393 renal and in the experiment on M14 melanoma was more than 100 µM in each case. Also, the TGI with NCI-H226 lung, with SF-539 CNS, with HOP-62 NSCLC, in the experiment with EKVX NSCLC, with HCC-2998 colon and with A498 renal was more than 100 µM each time. The compound further had a concentration for total growth inhibition (TGI) in the experiment on CCRF-CEM leukemia of more than 100 µM.
On to `CC(=O)Nc1ccc(C2=N/C(=C\c3ccc(Cl)c(Cl)c3)C(=O)O2)cc1`, for which the concentration for total growth inhibition (TGI) in the experiment with SK-MEL-28 melanoma, in the experiment on OVCAR-5 ovarian, with SK-MEL-5 melanoma, with A549 NSCLC, in the experiment on RXF 393 renal and with M14 melanoma was more than 100 µM in each case. The total growth inhibition concentration (TGI) in the experiment on NCI-H226 lung, in the experiment with SF-539 CNS, in the experiment with HOP-62 NSCLC, in the experiment on EKVX NSCLC, in the experiment with HCC-2998 colon and with A498 renal was more than 100 µM each time. The same compound yielded a TGI in the experiment on CCRF-CEM leukemia of more than 100 µM.
Consider `O=C1NC2OCC(O)C(O1)C2O` (stereo not drawn), for which the TGI in the experiment on SK-MEL-28 melanoma, with OVCAR-5 ovarian, in the experiment with SK-MEL-5 melanoma, in the experiment on RXF 393 renal, in the experiment with M14 melanoma and in the experiment with NCI-H226 lung was more than 100 µM throughout. The TGI in the experiment with SF-539 CNS, in the experiment on HOP-62 NSCLC, with EKVX NSCLC, in the experiment with A498 renal and in the experiment with CCRF-CEM leukemia was more than 100 µM each time.
Regarding `COC(=O)c1ccccc1/C=C1\Cc2cc3c(cc2C1=O)CCC3`, the TGI in the experiment on SK-MEL-28 melanoma, in the experiment on OVCAR-5 ovarian, in the experiment on SK-MEL-5 melanoma, with A549 NSCLC, in the experiment on M14 melanoma and in the experiment with NCI-H226 lung was more than 100 µM throughout. Further, the total growth inhibition concentration (TGI) in the experiment with SF-539 CNS, in the experiment with HOP-62 NSCLC, with EKVX NSCLC, in the experiment with HCC-2998 colon, with A498 renal and in the experiment on MCF7 breast was more than 100 µM each time. Also, in the experiment with DU-145 prostate, the TGI is more than 100 µM.
Regarding `Cc1ccc(C2(C)NC(=S)N(NC(N)=S)C2=S)cc1` (stereo not drawn), the total growth inhibition concentration (TGI) in the experiment with SK-MEL-28 melanoma, in the experiment with SK-MEL-5 melanoma, in the experiment with A549 NSCLC, in the experiment with RXF 393 renal, with M14 melanoma and in the experiment with NCI-H226 lung was more than 100 µM each time. Also, the TGI in the experiment on SF-539 CNS, in the experiment with HOP-62 NSCLC, with EKVX NSCLC, in the experiment on HCC-2998 colon, in the experiment with A498 renal and with CCRF-CEM leukemia was more than 100 µM throughout.
